Data taken from US7683168B2, “Compositions of novel opioid compounds and method of use thereof” (priority 2005, dated 2010).

How the values were obtained:
guinea pig ileum = assay: electrically stimulated guinea pig ileum (GPI) ED50; type: cell-based; details: Cavia porcellus; ED50, inhibition of electrically induced contractions
Experimental: Further the compounds of formula (1) were evaluated for in vitro opioid receptor activity in various receptor systems, including mouse vas deferens (Mouse Vas Deferens ED50), and guinea pig ileum (Guinea Pig Ileum ED50). The assay procedures used for such determinations of receptor activity are set out below.
Intact ileums (about 3 cm length) were removed from guinea pig and suspended with 1 g of tension in a bath chamber as described for the vasa deferentia. The ileums were stimulated with electrical square-wave pulses of 0.1-Hz, 1 msec pulse duration at supramaximal voltage.
The ED50 values were extrapolated from curves showing the dose concentration plotted against the response (J. A. H. Lord, A. A. Waterfield, J. Hughes, H. W. Kosterlitz, Nature 267, 495, (1977)).

human delta receptor = target: T1, human delta receptor (Homo sapiens, UniProt P41143); assay: radioligand binding, human delta receptor, HEK-293 cell membranes; details: cell not marked (rat), species not given, read-out: δ
T1 construct: purchased Perkin Elmer, Boston, Mass; 6110549; host or cells: HEK-293 cells

human mu opioid receptor = target: T2, human mu opioid receptor (Homo sapiens, UniProt P35372); assay: radioligand binding, human mu opioid receptor, CHO cell membranes; details: species not given, read-out: μ
T2 construct: purchased Perkin Elmer, Boston, Mass; 6110535; host or cells: CHO cells

[1] = system: seizure-like convulsions in mice; assay: mouse seizure-like convulsions; type: in vivo
Experimental: Mouse Seizure-Like Convulsions and antinociception: The central (CNS) effects of the compound were tested with central delta receptor mediated seizure-like convulsions and central mu opioid receptor mediated antinociceptive effects in mice. Male CD-1 mice (Charles River, Raleigh, N.C.) weighing 20-25 g were used to determine the seizure-like convulsion and antinociception activities for compounds.
They were then observed for seizure-like convulsions for one hour following the treatment. A seizure-like event was recorded if a mouse had uncontrollable clonic (or tonic/clonic) muscle movements that encompassed its entire body, usually followed by a brief cataleptic period. Catalepsy was determined by placing the animal's front paws on a horizontal bar held 2-3 inches from the cage floor. Cataleptic animals made no attempt to remove their paws.

mouse vas deferens = assay: electrically stimulated mouse vas deferens (MVD) ED50; type: cell-based; details: ED50, inhibition of electrically induced contractions

T1 sequence (P41143 whole entry): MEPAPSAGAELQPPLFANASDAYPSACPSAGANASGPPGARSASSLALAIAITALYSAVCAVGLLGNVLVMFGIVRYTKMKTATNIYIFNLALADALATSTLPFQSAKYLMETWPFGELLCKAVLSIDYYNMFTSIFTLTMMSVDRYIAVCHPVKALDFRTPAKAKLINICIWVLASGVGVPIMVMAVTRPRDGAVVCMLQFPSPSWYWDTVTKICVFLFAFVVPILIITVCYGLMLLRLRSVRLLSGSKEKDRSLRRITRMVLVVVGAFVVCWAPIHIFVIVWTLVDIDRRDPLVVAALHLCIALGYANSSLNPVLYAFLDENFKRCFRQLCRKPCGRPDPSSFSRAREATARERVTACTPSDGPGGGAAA
T2 sequence (P35372 whole entry): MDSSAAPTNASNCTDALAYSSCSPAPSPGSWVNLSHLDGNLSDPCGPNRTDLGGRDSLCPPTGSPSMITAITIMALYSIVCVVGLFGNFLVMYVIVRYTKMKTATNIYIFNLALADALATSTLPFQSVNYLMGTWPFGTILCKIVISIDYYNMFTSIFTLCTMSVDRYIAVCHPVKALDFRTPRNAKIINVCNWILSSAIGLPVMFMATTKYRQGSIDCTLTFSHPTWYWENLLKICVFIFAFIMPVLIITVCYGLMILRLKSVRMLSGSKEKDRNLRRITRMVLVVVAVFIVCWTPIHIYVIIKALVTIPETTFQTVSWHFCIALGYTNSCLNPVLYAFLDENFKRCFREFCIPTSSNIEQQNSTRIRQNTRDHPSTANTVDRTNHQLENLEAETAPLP

CCOC(=O)CN1CCCN(C(=O)c2cccc(C(c3cccc(O)c3)N3C[C@@H](C)N(Cc4ccccc4)C[C@@H]3C)c2)CC1 (stereo partly shown)
EC50 (guinea pig ileum): 526 nM | Ki (human delta receptor): 0.21 nM | Ki (human mu opioid receptor): 0.56 nM | Seiz. ([1]; 10 mg/kg IV): 60% 10 mg/kg IV | EC50 (mouse vas deferens): 2.4 nM

C[C@@H]1CN(C(c2cccc(O)c2)c2cccc(C(=O)N3CCCN(CC(=O)O)CC3)c2)[C@@H](C)CN1Cc1ccccc1 (stereo partly shown)
EC50 (guinea pig ileum): > 1000 nM | Ki (human mu opioid receptor): 1.27 nM | Seiz. ([1]; 20 mg/kg IV): 0% 20 mg/kg IV | EC50 (mouse vas deferens): 1.4 nM

CCOC(=O)CN1CCCN(C(=O)c2cccc(C(c3cccc(O)c3)N3C[C@@H](C)N(Cc4cccc(F)c4)C[C@@H]3C)c2)CC1 (stereo partly shown)
EC50 (guinea pig ileum): 761 nM | Ki (human delta receptor): 5.4 nM | Ki (human mu opioid receptor): 2.6 nM | Seiz. ([1]; 10 mg/kg IV): 20% 10 mg/kg IV | EC50 (mouse vas deferens): 13.4 nM

CCOC(=O)CCN1CCCN(C(=O)c2cccc([C@H](c3cccc(O)c3)N3C[C@@H](C)N(Cc4cccc(F)c4)C[C@@H]3C)c2)CC1
EC50 (guinea pig ileum): 978 nM | Ki (human delta receptor): 71 nM | Ki (human mu opioid receptor): 4.8 nM | Seiz. ([1]; 10 mg/kg IV): 20% 10 mg/kg IV | EC50 (mouse vas deferens): 17.1 nM

C[C@@H]1CN([C@@H](c2cccc(O)c2)c2cccc(C(=O)N3CCCN(CCC(=O)O)CC3)c2)[C@@H](C)CN1Cc1cccc(F)c1
EC50 (guinea pig ileum): 154 nM | Ki (human delta receptor): 4.17 nM | Ki (human mu opioid receptor): 7.7 nM | Seiz. ([1]; 20 mg/kg IV): 0% 200 mg/kg PO & SC 0% 20 mg/kg IV | Seiz. ([1]; 200 mg/kg PO & SC): 0% 200 mg/kg PO & SC 0% 20 mg/kg IV | EC50 (mouse vas deferens): 4 nM

CCOC(=O)CCN1CCCN(C(=O)c2cccc([C@H](c3cccc(O)c3)N3C[C@@H](C)N(CC4CC4)C[C@@H]3C)c2)CC1
EC50 (guinea pig ileum): 567 nM | Ki (human delta receptor): 121 nM | Ki (human mu opioid receptor): 2.9 nM | Seiz. ([1]; 10 mg/kg IV): 0% 10 mg/kg IV | EC50 (mouse vas deferens): 22.6 nM

C[C@@H]1CN([C@@H](c2cccc(O)c2)c2cccc(C(=O)N3CCCN(CCC(=O)O)CC3)c2)[C@@H](C)CN1CC1CC1
EC50 (guinea pig ileum): 664 nM | Ki (human delta receptor): 69 nM | Ki (human mu opioid receptor): 22.3 nM | Seiz. ([1]; 20 mg/kg IV): 0% 20 mg/kg IV | EC50 (mouse vas deferens): 66 nM

C[C@@H]1CN(C(c2cccc(O)c2)c2cccc(C(=O)N3CCCN(CCCC(=O)O)CC3)c2)[C@@H](C)CN1Cc1ccccc1 (stereo partly shown)
EC50 (guinea pig ileum): 159 nM | Ki (human delta receptor): 14.8 nM | Ki (human mu opioid receptor): 1.9 nM | Seiz. ([1]; 10 mg/kg IV): 0% 10 mg/kg IV | EC50 (mouse vas deferens): 1.07 nM

CCOC(=O)CCCN1CCCN(C(=O)c2cccc(C(c3cccc(O)c3)N3C[C@@H](C)N(Cc4cccc(F)c4)C[C@@H]3C)c2)CC1 (stereo partly shown)
EC50 (guinea pig ileum): 1500 nM | Ki (human delta receptor): 1.7 nM | Ki (human mu opioid receptor): 2.3 nM | EC50 (mouse vas deferens): 30 nM

C[C@@H]1CN(C(c2cccc(O)c2)c2cccc(C(=O)N3CCCN(CCCCCC(=O)O)CC3)c2)[C@@H](C)CN1Cc1ccccc1 (stereo partly shown)
EC50 (guinea pig ileum): 303 nM | Ki (human delta receptor): 2.8 nM | Ki (human mu opioid receptor): 3.9 nM | EC50 (mouse vas deferens): 3.26 nM

C=CCN1C[C@H](C)N(C(c2cccc(O)c2)c2cccc(C(=O)N3CCCN(Cc4ccc(C(=O)O)cc4)CC3)c2)C[C@H]1C (stereo partly shown)
EC50 (guinea pig ileum): 150 nM | Ki (human delta receptor): 0.39 nM | Ki (human mu opioid receptor): 4 nM | Seiz. ([1]; 10 mg/kg IV): 0% 10 mg/kg IV | EC50 (mouse vas deferens): 3.1 nM

CCOC(=O)CN1CCN(C(=O)c2cccc([C@H](c3cccc(O)c3)N3C[C@@H](C)N(Cc4ccccc4)C[C@@H]3C)c2)CC1 [Example 68, (4-{3-[(R)-((2S,5R)-4-Benzyl-2,5-dimethyl-piperazin-1-yl)-(3-hydroxy-phenyl)-methyl]-benzoyl}-piperazin-1-yl)-acetic acid ethyl ester]
EC50 (guinea pig ileum): 526 nM | Ki (human delta receptor): 0.73 nM | Ki (human mu opioid receptor): 1.22 nM | Seiz. ([1]; 10 mg/kg IV): 80% 10 mg/kg IV | EC50 (mouse vas deferens): 1.91 nM

CCOC(=O)CCCCCN1CCN(C(=O)c2cccc([C@H](c3cccc(O)c3)N3C[C@@H](C)N(Cc4ccccc4)C[C@@H]3C)c2)CC1 [Example 96, 6-(4-{3-[(R)-((2S,5R)-4-Benzyl-2,5-dimethyl-piperazin-1-yl)-(3-hydroxy-phenyl)-methyl]-benzoyl}-piperazin-1-yl)-hexanoic acid ethyl ester]
Ki (human delta receptor): 6.9 nM | Ki (human mu opioid receptor): 2 nM | Seiz. ([1]; 10 mg/kg IV): 60% 10 mg/kg IV | EC50 (mouse vas deferens): 10.4 nM

C[C@@H]1CN([C@@H](c2cccc(O)c2)c2cccc(C(=O)N3CCN(CCCCCC(=O)O)CC3)c2)[C@@H](C)CN1Cc1ccccc1 [Example 97, 6-(4-{3-[(R)-((2S,5R)-4-Benzyl-2,5-dimethyl-piperazin-1-yl)-(3-hydroxy-phenyl)-methyl]-benzoyl}-piperazin-1-yl)-hexanoic acid]
EC50 (guinea pig ileum): 445 nM | Ki (human delta receptor): 1.2 nM | Seiz. ([1]; 10 mg/kg IV): 0% 10 mg/kg IV | EC50 (mouse vas deferens): 2.5 nM

C[C@@H]1CN([C@@H](c2cccc(O)c2)c2cccc(C(=O)N3CCN(CCCCCCC(=O)O)CC3)c2)[C@@H](C)CN1Cc1ccccc1 [Example 111, 7-(4-{3-[(R)-((2S,5R)-4-Benzyl-2,5-dimethyl-piperazin-1-yl)-(3-hydroxy-phenyl)-methyl]-benzoyl}-piperazin-1-yl)-heptanoic acid]
Ki (human delta receptor): 0.77 nM | Ki (human mu opioid receptor): 8.7 nM | Seiz. ([1]; 10 mg/kg IV): 0% 10 mg/kg IV | EC50 (mouse vas deferens): 3.82 nM

C=CCN1C[C@H](C)N([C@@H](c2cccc(O)c2)c2cccc(C(=O)N3CCC(C(=O)O)CC3)c2)C[C@H]1C [Example 120, 1-{3-[(R)-((2S,5R)-4-Allyl-2,5-dimethyl-piperazin-1-yl)-(3-hydroxy-phenyl)-methyl]-benzoyl}-piperidine-4-carboxylic acid]
EC50 (guinea pig ileum): 48.6 nM | Ki (human mu opioid receptor): 4.1 nM | Seiz. ([1]; 10 mg/kg IV): 10% 10 mg/kg IV | EC50 (mouse vas deferens): 2.49 nM

C[C@@H]1CN([C@@H](c2cccc(O)c2)c2cccc(C(=O)N3CCC(C(=O)O)CC3)c2)[C@@H](C)CN1Cc1ccccc1 [Example 123, 1-{3-[(R)-((2S,5R)-4-Benzyl-2,5-dimethyl-piperazin-1-yl)-(3-hydroxy-phenyl)-methyl]-benzoyl}-piperidine-4-carboxylic acid]
EC50 (guinea pig ileum): 17.8 nM | Seiz. ([1]; 10 mg/kg IV): 0% 10 mg/kg IV | EC50 (mouse vas deferens): 0.48 nM

C[C@@H]1CN([C@@H](c2cccc(O)c2)c2cccc(C(=O)N3CCC(C(=O)O)CC3)c2)[C@@H](C)CN1Cc1cccc(F)c1 [Example 125, 1-{3-[(R)-[(2S,5R)-4-(3-Fluoro-benzyl)-2,5-dimethyl-piperazin-1-yl]-(3-hydroxyphenyl)-methyl]-benzoyl}-piperidine-4-carboxylic acid]
EC50 (guinea pig ileum): 46.7 nM | Seiz. ([1]; 10 mg/kg IV): 0% 10 mg/kg IV | EC50 (mouse vas deferens): 1.42 nM

C[C@@H]1CN([C@@H](c2cccc(O)c2)c2cccc(C(=O)N3CCC(C(=O)O)CC3)c2)[C@@H](C)CN1CC1CC1 [Example 127, 1-{3-[(R)-((1S,4R)-4-Cyclopropylmethyl-2,5-dimethyl-piperazin-1-yl)-(3-hydroxy-phenyl)-methyl]-benzoyl}-piperidine-4-carboxylic acid]
EC50 (guinea pig ileum): 242 nM | Ki (human delta receptor): 4.35 nM | Seiz. ([1]; 10 mg/kg IV): 0% 10 mg/kg IV | EC50 (mouse vas deferens): 11.5 nM

C=CCN1C[C@H](C)N([C@@H](c2cccc(O)c2)c2cccc(C(=O)N3CCC(=CC(=O)O)CC3)c2)C[C@H]1C [Example 138, (1-{3-[(R)-((2S,5R)-4-allyl-2,5-dimethyl-1-piperazinyl)(3-hydroxyphenyl)methyl]-benzoyl}-4-piperidinylidene)acetic acid]
Ki (human delta receptor): 0.63 nM | Ki (human mu opioid receptor): 7.4 nM | Seiz. ([1]; 10 mg/kg IV): 0% 10 mg/kg IV | EC50 (mouse vas deferens): 1.35 nM

C=CCN1C[C@H](C)N([C@@H](c2cccc(O)c2)c2cccc(C(=O)N3CCC(NCc4ccc(C(=O)O)cc4)CC3)c2)C[C@H]1C [Example 140, 4-[(1-{3-[(R)-((2S,5R)-4-Allyl-2,5-dimethyl-piperazin-1-yl)-(3-hydroxy-phenyl)-methyl]-benzoyl}-piperidin-4-ylamino)-methyl]-benzoic acid]
Ki (human delta receptor): 1.2 nM | Ki (human mu opioid receptor): 4.6 nM | Seiz. ([1]; 10 mg/kg IV): 0% 10 mg/kg IV | EC50 (mouse vas deferens): 6.74 nM

C=CCN1C[C@H](C)N([C@@H](c2cccc(O)c2)c2cccc(C(=O)N3CCC(NCCCC(=O)O)CC3)c2)C[C@H]1C [Example 142, 4-(1-{3-[(R)-((2S,5R)-4-Allyl-2,5-dimethyl-piperazin-1-yl)-(3-hydroxy-phenyl)-methyl]-benzoyl}-piperidin-4-ylamino)-butyric acid]
Ki (human delta receptor): 1.7 nM | Ki (human mu opioid receptor): 8.7 nM | Seiz. ([1]; 10 mg/kg IV): 0% 10 mg/kg IV | EC50 (mouse vas deferens): 12.5 nM

C=CCN1C[C@H](C)N([C@@H](c2cccc(O)c2)c2cccc(C(=O)N3CCC[C@H]3C(=O)OC)c2)C[C@H]1C [Example 143, 1-{3-[(R)-((2S,5R)-4-Allyl-2,5-dimethyl-piperazin-1-yl)-(3-hydroxy-phenyl)-methyl]-benzoyl}-pyrrolidine-2-carboxylic acid (S)-methyl ester]
Ki (human delta receptor): 1.5 nM | Ki (human mu opioid receptor): 0.5 nM | Seiz. ([1]; 10 mg/kg IV): 10% 10 mg/kg IV | EC50 (mouse vas deferens): 1.79 nM
